# Data published in paper PMC12802110, “Biochemical characterization of the full-length isoform of soluble adenylyl cyclase” (The Journal of Biological Chemistry, 2025).
# Read-outs that look alike come from different tables or passages of the source.
# Tests used:
# [1] = tested on: mouse and human sACfl and sACt; experiment: In vitro adenylyl cyclase activity assay, one result stated for all four sAC proteins; type: biochemical; conditions: for inhibition of cyclase activity at 10 mM: 10 mM test substance
# [2] = target: T1, mouse sACfl (Mus musculus, UniProt Q8C0T9); experiment: In vitro adenylyl cyclase activity assay (two-column method), endogenous mouse sACfl (FLAG); type: biochemical; conditions: for EC50: 2 mM ATP
# T1 construct: Schematic of full-length (sACfl) and truncated (sACt) sAC isoforms; from tissue; host or cells: testes of homozygous double knock-in mice (FLAG pulldown, eluted with 3xFLAG peptide)
# Source text: (§1) […]. To determine specific activities of endogenous mouse proteins, sACfl and sACt were quantitated by Western blot. For ATP kinetics, representative experiments are shown with SEM determined from normalized data.
# [3] = target: T2, mouse sACt (Mus musculus, UniProt Q8C0T9); experiment: In vitro adenylyl cyclase activity assay (two-column method), endogenous mouse sACt (Strep); type: biochemical; conditions: for EC50: 2 mM ATP
# T2 construct: from tissue; host or cells: testes of homozygous double knock-in mice (Strep pulldown after FLAG depletion, eluted with biotin)
# T2 sequence (Q8C0T9 1-471 isoform Q8C0T9-2): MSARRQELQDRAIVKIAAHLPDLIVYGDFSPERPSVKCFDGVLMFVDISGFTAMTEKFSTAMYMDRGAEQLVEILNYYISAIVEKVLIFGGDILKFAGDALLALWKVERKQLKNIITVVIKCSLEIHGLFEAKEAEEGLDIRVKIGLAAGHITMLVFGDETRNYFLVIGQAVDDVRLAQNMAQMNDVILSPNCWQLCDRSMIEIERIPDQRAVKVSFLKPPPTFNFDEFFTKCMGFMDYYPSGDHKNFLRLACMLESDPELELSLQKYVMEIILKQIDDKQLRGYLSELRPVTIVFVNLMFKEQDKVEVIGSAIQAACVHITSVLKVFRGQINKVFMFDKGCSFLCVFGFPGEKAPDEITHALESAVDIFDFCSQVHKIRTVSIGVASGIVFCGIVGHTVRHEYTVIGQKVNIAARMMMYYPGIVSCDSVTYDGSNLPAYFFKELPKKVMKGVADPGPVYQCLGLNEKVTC
# Source text: as §1
# [4] = target: T3, human sACfl (Homo sapiens, UniProt Q96PN6); experiment: In vitro adenylyl cyclase activity assay (two-column method), heterologously expressed human sACfl (GFP nanobody purified, complexed with Hsp70); type: biochemical; conditions: for EC50: 2 mM ATP
# T3 construct: Schematic of full-length (sACfl) and truncated (sACt) sAC isoforms; eGFP (C, cleaved yes); His-tag (on eGFP) (C, cleaved yes); PreScission protease site (C); made in house; host or cells: Expi293 cells
# [5] = target: T4, human sACt (Homo sapiens, UniProt Q96PN6); experiment: In vitro adenylyl cyclase activity assay (two-column method), heterologously expressed human sACt (GST); type: biochemical; conditions: for EC50: 2 mM ATP
# T4 construct: sACt contains only the C1 and C2 catalytic domains; GST; made in house
# T4 sequence (Q96PN6 1-469 limits assumed): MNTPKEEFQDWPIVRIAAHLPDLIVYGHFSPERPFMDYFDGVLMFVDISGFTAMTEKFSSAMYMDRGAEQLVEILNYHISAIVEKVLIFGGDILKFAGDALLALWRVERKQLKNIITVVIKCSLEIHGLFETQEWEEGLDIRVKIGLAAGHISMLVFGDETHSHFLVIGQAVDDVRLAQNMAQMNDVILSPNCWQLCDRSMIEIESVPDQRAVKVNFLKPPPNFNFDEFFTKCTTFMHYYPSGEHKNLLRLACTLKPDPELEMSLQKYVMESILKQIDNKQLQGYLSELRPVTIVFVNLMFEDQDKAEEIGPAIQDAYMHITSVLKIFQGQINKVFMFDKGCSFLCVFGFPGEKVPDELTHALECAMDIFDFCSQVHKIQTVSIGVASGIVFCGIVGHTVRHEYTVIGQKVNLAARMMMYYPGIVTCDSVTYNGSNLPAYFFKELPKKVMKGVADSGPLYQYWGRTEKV
# [6] = tested on: sAC; parameters: method as in PMID 24100033; conditions: read-out: KM of sAC's substrate ATP; cited from earlier work
# [7] = target: T5, mouse sAC isoforms (sACfl and sACt) (Mus musculus, UniProt Q8C0T9); experiment: In vitro adenylyl cyclase activity assay, one result stated for both mouse sAC isoforms; conditions: read-out: IC50, mouse sAC; text summary (Fig. 5)
# T5 sequence (Q8C0T9 1-469 limits assumed): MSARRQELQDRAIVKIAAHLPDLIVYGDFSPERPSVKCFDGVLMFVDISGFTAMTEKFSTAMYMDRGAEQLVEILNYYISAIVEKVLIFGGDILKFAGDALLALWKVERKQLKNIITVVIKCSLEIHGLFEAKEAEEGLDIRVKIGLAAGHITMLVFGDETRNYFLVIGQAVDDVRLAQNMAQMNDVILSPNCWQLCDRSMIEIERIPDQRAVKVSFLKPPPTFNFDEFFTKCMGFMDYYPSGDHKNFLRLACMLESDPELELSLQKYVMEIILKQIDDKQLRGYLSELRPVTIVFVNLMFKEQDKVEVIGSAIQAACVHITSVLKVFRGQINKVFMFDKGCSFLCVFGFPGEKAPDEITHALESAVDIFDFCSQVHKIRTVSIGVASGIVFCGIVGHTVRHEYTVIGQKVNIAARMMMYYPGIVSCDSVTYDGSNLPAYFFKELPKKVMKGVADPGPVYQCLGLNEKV
# [8] = 2 mM ATP, 10 mM MgCl2, 10 mM CaCl2, 40 mM NaHCO3
# [9] = in the presence of Mg^2+, Ca^2+ and HCO3^- (20-40 mM MgCl2, 10 mM CaCl2, 40 mM NaHCO3), read-out: KM for substrate Mg^2+-ATP
# [10] = 10 mM MgCl2, 40 mM NaHCO3, read-out: EC50 for Ca^2+
# [11] = 10 mM MgCl2, 10 mM CaCl2, read-out: EC50 for HCO3^-
# [12] = 10 mM MgCl2, 10 mM CaCl2, 40 mM NaHCO3
# T1 sequence (Q8C0T9 whole entry, the tested form may be a part, canonical isoform): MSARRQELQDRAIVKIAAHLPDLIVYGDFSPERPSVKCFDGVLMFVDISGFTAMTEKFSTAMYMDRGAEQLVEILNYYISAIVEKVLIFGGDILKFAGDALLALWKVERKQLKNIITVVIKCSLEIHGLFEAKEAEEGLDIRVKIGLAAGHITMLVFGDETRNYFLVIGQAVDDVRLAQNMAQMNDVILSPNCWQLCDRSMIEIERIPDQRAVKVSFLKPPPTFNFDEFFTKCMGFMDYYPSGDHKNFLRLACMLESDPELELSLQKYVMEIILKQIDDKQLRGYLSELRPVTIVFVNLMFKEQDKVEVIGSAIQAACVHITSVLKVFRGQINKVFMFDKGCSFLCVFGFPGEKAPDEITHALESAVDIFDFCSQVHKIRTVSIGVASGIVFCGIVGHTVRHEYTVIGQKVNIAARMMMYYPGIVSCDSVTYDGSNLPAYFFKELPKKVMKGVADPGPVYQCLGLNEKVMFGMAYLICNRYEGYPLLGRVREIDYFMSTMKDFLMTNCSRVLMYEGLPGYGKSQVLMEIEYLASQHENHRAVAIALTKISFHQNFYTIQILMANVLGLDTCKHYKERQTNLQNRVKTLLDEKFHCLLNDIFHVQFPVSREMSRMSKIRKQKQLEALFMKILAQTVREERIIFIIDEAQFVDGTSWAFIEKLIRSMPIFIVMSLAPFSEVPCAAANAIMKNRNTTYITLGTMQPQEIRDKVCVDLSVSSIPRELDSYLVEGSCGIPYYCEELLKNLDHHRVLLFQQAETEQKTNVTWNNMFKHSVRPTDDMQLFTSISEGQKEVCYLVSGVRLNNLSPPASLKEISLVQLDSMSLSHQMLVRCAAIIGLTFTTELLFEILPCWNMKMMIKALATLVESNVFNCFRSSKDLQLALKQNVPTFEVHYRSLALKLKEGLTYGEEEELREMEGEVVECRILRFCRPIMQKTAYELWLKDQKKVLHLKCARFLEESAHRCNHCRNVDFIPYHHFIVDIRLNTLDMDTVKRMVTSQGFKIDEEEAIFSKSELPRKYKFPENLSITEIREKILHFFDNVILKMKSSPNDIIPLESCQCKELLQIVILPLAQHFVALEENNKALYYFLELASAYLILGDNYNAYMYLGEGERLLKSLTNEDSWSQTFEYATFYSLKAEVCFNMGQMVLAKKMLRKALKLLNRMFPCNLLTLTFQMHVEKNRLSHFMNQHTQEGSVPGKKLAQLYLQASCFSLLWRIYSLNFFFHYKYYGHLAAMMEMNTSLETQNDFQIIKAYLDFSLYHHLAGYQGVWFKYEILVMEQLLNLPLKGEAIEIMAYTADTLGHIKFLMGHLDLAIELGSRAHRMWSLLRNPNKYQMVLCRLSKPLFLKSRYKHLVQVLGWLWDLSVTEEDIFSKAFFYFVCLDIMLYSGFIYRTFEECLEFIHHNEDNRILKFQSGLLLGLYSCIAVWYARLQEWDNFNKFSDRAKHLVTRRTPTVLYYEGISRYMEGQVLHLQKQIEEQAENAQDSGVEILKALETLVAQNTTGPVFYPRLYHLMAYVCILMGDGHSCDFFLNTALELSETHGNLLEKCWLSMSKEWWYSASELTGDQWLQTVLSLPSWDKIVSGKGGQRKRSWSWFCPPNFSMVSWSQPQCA
# T3 sequence (Q96PN6 whole entry, the tested form may be a part, canonical isoform): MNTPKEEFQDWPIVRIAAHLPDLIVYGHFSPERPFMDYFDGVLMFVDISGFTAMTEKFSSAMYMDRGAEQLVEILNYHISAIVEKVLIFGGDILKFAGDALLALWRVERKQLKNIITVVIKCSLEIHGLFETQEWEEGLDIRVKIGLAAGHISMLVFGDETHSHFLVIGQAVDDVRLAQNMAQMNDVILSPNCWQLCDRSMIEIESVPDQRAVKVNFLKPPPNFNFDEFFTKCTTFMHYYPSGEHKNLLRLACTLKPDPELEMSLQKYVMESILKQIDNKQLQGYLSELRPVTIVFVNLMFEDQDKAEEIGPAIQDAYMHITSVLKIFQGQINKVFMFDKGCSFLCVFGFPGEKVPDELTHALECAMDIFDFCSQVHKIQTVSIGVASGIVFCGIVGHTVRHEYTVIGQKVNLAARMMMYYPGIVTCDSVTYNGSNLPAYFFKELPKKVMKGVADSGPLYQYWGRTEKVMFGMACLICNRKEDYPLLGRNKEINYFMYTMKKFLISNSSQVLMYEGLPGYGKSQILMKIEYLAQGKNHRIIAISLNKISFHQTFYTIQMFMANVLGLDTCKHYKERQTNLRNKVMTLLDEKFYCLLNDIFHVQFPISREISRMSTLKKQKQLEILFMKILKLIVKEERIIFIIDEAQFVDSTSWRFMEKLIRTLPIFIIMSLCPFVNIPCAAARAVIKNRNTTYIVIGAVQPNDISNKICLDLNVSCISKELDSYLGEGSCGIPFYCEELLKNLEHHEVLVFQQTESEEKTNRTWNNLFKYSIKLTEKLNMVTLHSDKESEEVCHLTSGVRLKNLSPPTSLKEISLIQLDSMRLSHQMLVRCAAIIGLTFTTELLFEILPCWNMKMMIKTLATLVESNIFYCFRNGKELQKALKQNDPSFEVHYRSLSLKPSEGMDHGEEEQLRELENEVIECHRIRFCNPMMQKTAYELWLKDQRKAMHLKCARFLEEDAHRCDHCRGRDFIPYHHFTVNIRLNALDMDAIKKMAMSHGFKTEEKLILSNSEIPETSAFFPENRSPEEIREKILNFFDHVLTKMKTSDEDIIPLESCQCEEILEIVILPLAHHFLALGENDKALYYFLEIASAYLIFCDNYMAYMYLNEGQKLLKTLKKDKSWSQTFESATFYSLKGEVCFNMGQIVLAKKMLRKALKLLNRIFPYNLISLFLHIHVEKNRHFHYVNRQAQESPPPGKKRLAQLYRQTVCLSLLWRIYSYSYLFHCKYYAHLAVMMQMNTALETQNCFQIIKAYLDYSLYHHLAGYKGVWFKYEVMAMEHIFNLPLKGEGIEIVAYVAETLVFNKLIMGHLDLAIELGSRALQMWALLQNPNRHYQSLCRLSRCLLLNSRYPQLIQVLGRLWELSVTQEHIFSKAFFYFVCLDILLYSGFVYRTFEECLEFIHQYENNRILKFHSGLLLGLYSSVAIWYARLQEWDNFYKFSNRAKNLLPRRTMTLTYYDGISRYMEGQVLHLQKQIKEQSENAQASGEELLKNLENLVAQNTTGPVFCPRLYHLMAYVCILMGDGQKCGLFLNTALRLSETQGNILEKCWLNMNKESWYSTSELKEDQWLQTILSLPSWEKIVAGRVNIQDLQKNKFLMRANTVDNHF
# T3 sequence (P0DMV8 whole entry partner, the tested form may be a part, canonical isoform): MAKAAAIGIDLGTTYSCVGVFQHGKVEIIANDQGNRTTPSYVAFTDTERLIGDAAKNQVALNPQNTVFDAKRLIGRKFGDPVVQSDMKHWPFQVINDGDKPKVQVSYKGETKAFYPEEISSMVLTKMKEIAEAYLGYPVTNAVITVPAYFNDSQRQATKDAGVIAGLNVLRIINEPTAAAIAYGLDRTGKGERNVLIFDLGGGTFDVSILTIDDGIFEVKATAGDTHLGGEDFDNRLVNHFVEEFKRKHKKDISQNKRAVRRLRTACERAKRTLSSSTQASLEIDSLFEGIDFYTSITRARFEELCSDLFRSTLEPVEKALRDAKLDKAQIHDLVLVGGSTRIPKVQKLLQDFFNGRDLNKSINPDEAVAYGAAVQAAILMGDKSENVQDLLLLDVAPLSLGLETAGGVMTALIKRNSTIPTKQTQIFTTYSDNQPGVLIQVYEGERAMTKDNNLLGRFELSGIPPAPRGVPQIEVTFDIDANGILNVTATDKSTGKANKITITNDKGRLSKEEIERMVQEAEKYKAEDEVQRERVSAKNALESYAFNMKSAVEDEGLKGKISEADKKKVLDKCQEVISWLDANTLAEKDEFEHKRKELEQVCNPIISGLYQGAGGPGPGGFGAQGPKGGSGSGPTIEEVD
smiles,measurement,setting,value
Nc1ncnc2c1ncn2[C@@H]1O[C@H](COP(=O)(O)OP(=O)(O)O)[C@@H](O)[C@H]1O [ADP],inhibition of cyclase activity at 10 mM,[1]; [8],∼75% inhibition at 10 mM
same,inhibition of cyclase activity (in words),[1]; at 10 mM,some inhibition
Nc1ncnc2c1ncn2[C@@H]1O[C@H](COP(=O)(O)O)[C@@H](O)[C@H]1O [AMP],inhibition of cyclase activity at 10 mM,[1]; [8],No inhibition at 10 mM
same,inhibition of cyclase activity (in words),[1]; at concentrations up to 10 mM,no inhibition
Nc1ncnc2c1ncn2[C@@H]1O[C@H](COP(=O)(O)OP(=O)(O)OP(=O)(O)O)[C@@H](O)[C@H]1O [ATP],Km,[2]; [9],2.2 ± 0.39 mM
same,Km,[3]; [9],2.7 ± 0.25 mM
same,Km,[4]; [9],2.2 ± 0.3 mM
same,Km,[5]; [9],1.8 ± 0.28 mM
same,Km,[6],~2 mM
Nc1ncnc2c1ncn2[C@@H]1O[C@H](CO)[C@@H](O)[C@H]1O [Adenosine],inhibition of cyclase activity at 10 mM,[1]; [8],>50% inhibition at 10 mM
same,inhibition of cyclase activity (in words),[1]; at 10 mM,some inhibition
Nc1ccn([C@@H]2O[C@H](COP(=O)(O)OP(=O)(O)OP(=O)(O)O)[C@@H](O)[C@H]2O)c(=O)n1 [CTP],inhibition of cyclase activity at 10 mM,[1]; [8],>50% inhibition at 10 mM
[Ca+2].[Cl-].[Cl-] [Ca^2+],EC50,[2]; [10],1.3 ± 0.15 mM
same,EC50,[3]; [10],1.4 ± 0.11 mM
same,EC50,[4]; [10],1.7 ± 0.15 mM
same,EC50,[5]; [10],1.7 ± 0.16 mM
Nc1nc2c(ncn2[C@@H]2O[C@H](COP(=O)(O)OP(=O)(O)O)[C@@H](O)[C@H]2O)c(=O)[nH]1 [GDP],inhibition of cyclase activity at 10 mM,[1]; [8],∼75% inhibition at 10 mM
same,inhibition of cyclase activity (in words),[1]; at 10 mM,some inhibition
Nc1nc2c(ncn2[C@@H]2O[C@H](COP(=O)(O)O)[C@@H](O)[C@H]2O)c(=O)[nH]1 [GMP],inhibition of cyclase activity at 10 mM,[1]; [8],No inhibition at 10 mM
same,inhibition of cyclase activity (in words),[1]; at concentrations up to 10 mM,no inhibition
Nc1nc2c(ncn2[C@@H]2O[C@H](COP(=O)(O)OP(=O)(O)OP(=O)(O)O)[C@@H](O)[C@H]2O)c(=O)[nH]1 [GTP],inhibition of cyclase activity at 10 mM,[1]; [8],∼50% inhibition at 10 mM
O=C(O)O [HCO3^–],EC50,[2]; [11],21 ± 1.9 mM
same,EC50,[3]; [11],19 ± 1.6 mM
same,EC50,[4]; [11],14 ± 1.2 mM
same,EC50,[5]; [11],14 ± 1 mM
O=c1[nH]cnc2c1ncn2[C@@H]1O[C@H](COP(=O)(O)OP(=O)(O)OP(=O)(O)O)[C@@H](O)[C@H]1O [ITP],inhibition of cyclase activity at 10 mM,[1]; [8],∼50% inhibition at 10 mM
O=P(O)(O)OP(=O)(O)O [Pyrophosphate],inhibition of cyclase activity at 1 mM,"[1]; 1 mM test substance, 2 mM ATP, 10 mM MgCl2, 10 mM CaCl2, 40 mM NaHCO3",~25%
same,inhibition of cyclase activity at 10 mM,[1]; [8],> 90%
same,inhibition of cyclase activity (in words),[1]; at 1 mM,slight inhibition
same,inhibition of cyclase activity (in words),[1]; at concentrations >10 mM,fully inhibited
Nc1nc(Cl)cc(-c2nn(C(F)F)cc2Cc2ccccc2OCCN2CCOC[C@H]2CO)n1 [TDI-11861],IC50,[2]; [12],22.4 ± 9.3 nM
same,IC50,[3]; [12],21.1 ± 4.5 nM
same,IC50,[7],~21 nM
Cc1cn([C@H]2C[C@H](O)[C@@H](COP(=O)(O)OP(=O)(O)OP(=O)(O)O)O2)c(=O)[nH]c1=O [TTP],inhibition of cyclase activity at 10 mM,[1]; [8],∼50% inhibition at 10 mM
O=c1ccn([C@@H]2O[C@H](COP(=O)(O)OP(=O)(O)OP(=O)(O)O)[C@@H](O)[C@H]2O)c(=O)[nH]1 [UTP],inhibition of cyclase activity at 10 mM,[1]; [8],∼50% inhibition at 10 mM
